The text below walks through data of paper PMC11722135, “Structure- and Ligand-Based Virtual Screening for Identification of Novel TRPV4 Antagonists” (Molecules, 2024).

For assay [1], the target named is T1, human TRPV4 (Homo sapiens, UniProt Q9HBA0).
T1 construct: host or cells: HEK-293 cells (ATCC), transient transfection
Put plainly: FLIPRtetra calcium assay, first addition (agonism). It counts as cell-based. The procedure:
(§1) The TRPV4 pharmacology of the hit compounds (Enamine) and the natural stilbenoids (purity > 95%, extracted at the Laboratory of Organic Chemistry at Åbo Akademi University) was studied with the fluorometric imaging plate reader FLIPR^tetra (Molecular Devices, San Jose, CA, USA) using a dual addition protocol, in which a compound’s agonism is initially measured and then, subsequently, a reference agonist is added to assess the compound’s possible antagonism. The studies were conducted in a 96-well plate format using HEK-293 cells (ATCC) that were transiently transfected with the human TRPV4 plasmid (Origene, Rockville, MD, USA, cat. SC309684). HEK cells were used as they are easy to transfect, and TRPV4 overexpressing cells provide a robust system to study TRPV4-mediated calcium responses with a wide signal window. In the experiments, the cells were loaded with a Calcium 4 Assay reagent (Molecular Devices) to enable intracellular calcium measurements. The study protocol was initiated by dispensing a concentration series (0.05–37.5 µM) of the test compounds on cells by FLIPR^tetra, and the agonism was recorded for 10 min followed by the second addition, 500 nM of the known TRPV4 agonist GSK1016790A (Sigma-Aldrich, St. Louis, […], USA, cat. G0798). The antagonism of the test compounds was measured for 2 min. All the experiments were performed at 37 °C. The excitation and emission were measured at wavelengths of 470–495 nm and 515–575 nm, respectively.
(§2) In compound agonism and antagonism analysis, the fluorescence values were normalized by subtracting the baseline value from the maximum value of the first 10 min and of the last 2 min measured for each well, respectively. EC50 and IC50 values were determined from dose–response curves using a nonlinear regression curve fit by Prism (version 9.1.0). Dose–response curves were constructed from a mean of 3 separate wells at each compound concentration.

For assay [2], the target named is T1, human TRPV4. Put plainly: FLIPRtetra calcium assay, second addition (antagonism of 500 nM GSK1016790A). It is filed as cell-based. The following applies: for Inhibitory effect / activity on hTRPV4 in vitro: natural stilbenoids, 0.05–37.5 µM concentration series; for IC50: HEK-293 cells transiently transfected with human TRPV4, 500 nM GSK1016790A, 37 °C, read-out: IC50 (inhibition of response evoked by GSK1016790A). On the procedure: as §1, §2

Another assay concerns TRPV4. On the set-up: method as in doi:10.1101/2020.10.13.334797. The following applies: read-out: EC50 (TRPV4 agonist); cited from earlier work.

Entries after “also recorded” stand apart in the source; their conditions may differ.

T1 sequence (Q9HBA0 whole entry): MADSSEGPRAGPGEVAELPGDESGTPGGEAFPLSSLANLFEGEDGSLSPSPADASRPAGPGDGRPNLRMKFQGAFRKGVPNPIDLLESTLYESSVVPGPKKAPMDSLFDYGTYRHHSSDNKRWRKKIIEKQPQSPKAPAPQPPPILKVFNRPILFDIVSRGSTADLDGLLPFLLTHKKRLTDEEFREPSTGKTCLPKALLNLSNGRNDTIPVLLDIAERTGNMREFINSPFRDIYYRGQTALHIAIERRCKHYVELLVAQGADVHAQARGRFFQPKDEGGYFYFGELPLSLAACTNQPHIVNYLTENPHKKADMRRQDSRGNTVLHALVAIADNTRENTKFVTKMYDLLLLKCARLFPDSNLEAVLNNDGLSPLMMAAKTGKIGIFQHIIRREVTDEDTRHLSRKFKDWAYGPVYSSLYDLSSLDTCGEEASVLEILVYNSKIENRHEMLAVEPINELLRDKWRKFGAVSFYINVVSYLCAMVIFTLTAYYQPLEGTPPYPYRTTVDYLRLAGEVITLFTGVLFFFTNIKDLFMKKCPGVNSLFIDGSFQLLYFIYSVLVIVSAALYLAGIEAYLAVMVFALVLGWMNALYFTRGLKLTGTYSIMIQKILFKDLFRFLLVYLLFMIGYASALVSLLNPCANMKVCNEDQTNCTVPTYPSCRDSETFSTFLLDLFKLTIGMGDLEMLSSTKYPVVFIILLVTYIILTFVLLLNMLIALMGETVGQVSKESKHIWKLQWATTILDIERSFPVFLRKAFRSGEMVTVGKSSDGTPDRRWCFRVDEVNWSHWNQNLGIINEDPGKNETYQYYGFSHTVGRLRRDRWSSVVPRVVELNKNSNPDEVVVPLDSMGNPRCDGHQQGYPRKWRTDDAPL

The EC50 is the concentration at which the effect is half-maximal. In the case of `CN1C(=O)c2ccc(NCc3nc(-c4c(F)cccc4F)cs3)cc2C1=O` [Z1728742868], the concentration giving a half-maximal response (EC50) on human TRPV4 [1] (HEK-293 cells transiently transfected with human TRPV4, 37 °C, read-out: EC50 (increase in intracellular calcium)) was 14 µM. For the same molecule, the “Inhibition of the effect of GSK1016790A” value on human TRPV4 [2] (37.5 µM (highest test concentration), 500 nM GSK1016790A) was “inhibited the effect of GSK1016790A; also recorded: effectively inhibited the response”.

Consider `COc1cc(/C=C/c2cc(O)cc(O[C@@H]3O[C@H](CO)[C@@H](O)[C@H](O)[C@H]3O)c2)ccc1O` [Isorhapontin, isorhapontin], for which, on human TRPV4 [2], the “Inhibitory effect / activity on hTRPV4 in vitro” value was “inactive”. Turning to `OC[C@H]1O[C@@H](Oc2cc(O)cc(/C=C/c3ccc(O)c(O)c3)c2)[C@H](O)[C@@H](O)[C@@H]1O` [Astringin, astringin], the “Inhibitory effect / activity on hTRPV4 in vitro” value on human TRPV4 [2] was “inactive”. In general, IC50 refers to the concentration that gives 50% inhibition. Consider `O=C(CC(NC(=O)c1ccccc1Cl)c1ccccc1)Nc1ccc(N2CCCC2)nc1` (stereo not drawn) [Z221487176], for which the 50% inhibitory concentration (IC50) on human TRPV4 [2] is above 30 µM. Consider `O=C(CC1C(=O)Nc2ccccc2N1C(=O)/C=C/c1ccccc1)Nc1ccc(F)cc1` (stereo not drawn) [Z1213735368], for which the “Agonistic activity on the channel” value on human TRPV4 [1] (10 µM) was “without any agonistic activity”. In addition, the “Increase in the fluorescence signal / [Ca2+] (agonism)” value at human TRPV4 [1] (high concentration (30 µM)) is “evoked a slow increase in the fluorescence signal; also recorded: gradually raised [Ca^2+] levels”. Further, the “Inhibition of the response evoked by GSK1016790A” value on human TRPV4 [2] (10 µM, 500 nM GSK1016790A) is reported as “inhibited the response evoked by GSK1016790A; also recorded: inhibited the response induced by GSK1016790A”. The “Inhibitory effect on hTRPV4 / reversal of the effect of GSK1016790A” value at human TRPV4 [2] (30 µM (high concentration), 500 nM GSK1016790A) was “reverse the effect of GSK1016790A”. Also, the IC50 at human TRPV4 [2] turned out to be 8 µM. Turning to `CC(C)C[C@H](NC(=O)c1cc2ccccc2s1)C(=O)N1CCN(C(=O)[C@H](CO)NS(=O)(=O)c2ccc(Cl)cc2Cl)CC1` [GSK1016790A], in the assay on TRPV4, the EC50 is 0.002 µM.

Regarding `CCCCCCCCCC(=O)O[C@@H]1[C@@H](C)[C@@]2(O)[C@@H](C=C(CO)C[C@@]3(O)C(=O)C(C)=C[C@@H]23)[C@@H]2C(C)(C)[C@]12OC(=O)CCCCCCCCC` [4α-PDD, 4α-phorbol 12,13-didecanoate], the concentration for a half-maximal effect (EC50) in the assay on TRPV4 is 0.2 µM.
